The target of one test is T1, D(4) dopamine receptor (Homo sapiens, UniProt P21917).
T1 sequence (P21917 whole entry): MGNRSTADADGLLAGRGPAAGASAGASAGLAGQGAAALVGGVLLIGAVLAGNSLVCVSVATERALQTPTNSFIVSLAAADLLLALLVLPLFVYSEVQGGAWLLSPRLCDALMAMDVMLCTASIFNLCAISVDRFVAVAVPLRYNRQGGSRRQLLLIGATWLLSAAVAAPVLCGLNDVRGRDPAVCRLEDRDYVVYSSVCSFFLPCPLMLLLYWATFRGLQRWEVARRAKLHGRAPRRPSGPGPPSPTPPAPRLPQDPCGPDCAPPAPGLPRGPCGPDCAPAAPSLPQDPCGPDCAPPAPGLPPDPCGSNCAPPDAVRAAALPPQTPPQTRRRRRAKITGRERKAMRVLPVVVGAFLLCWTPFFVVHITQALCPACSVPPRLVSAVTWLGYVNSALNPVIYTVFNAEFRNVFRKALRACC

Another test concerns the target D(3) dopamine receptor (Homo sapiens, UniProt P35462).

SMILES strings stand for the structures.

D(3) dopamine receptor, sequence (P35462 whole entry): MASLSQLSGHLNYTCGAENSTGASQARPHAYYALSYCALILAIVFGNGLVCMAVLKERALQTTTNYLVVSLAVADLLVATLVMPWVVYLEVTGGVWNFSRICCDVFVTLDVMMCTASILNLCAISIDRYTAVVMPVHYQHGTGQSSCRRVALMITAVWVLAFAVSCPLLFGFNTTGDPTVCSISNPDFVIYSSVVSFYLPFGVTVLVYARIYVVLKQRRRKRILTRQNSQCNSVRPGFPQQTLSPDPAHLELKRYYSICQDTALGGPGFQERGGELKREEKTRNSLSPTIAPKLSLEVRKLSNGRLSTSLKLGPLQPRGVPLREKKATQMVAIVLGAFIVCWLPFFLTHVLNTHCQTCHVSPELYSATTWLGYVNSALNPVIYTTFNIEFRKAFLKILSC
Description for D(3) dopamine receptor: Ability to displace [3H]spiperone from human dopamine receptor D3 (hD3) receptor stably expressed in HEK293 cells.
Description for D(4) dopamine receptor: Ability to displace [3H]spiperone from human dopamine receptor D4 (hD4) receptor stably expressed in HEK293 cells.

As to `CC1(C(=O)/C=C(\O)c2ccc(Cl)cc2)CCN(Cc2ccccc2)CC1`, the Ki at D(4) dopamine receptor is 350 nM; on D(3) dopamine receptor it was 510 nM.

With `O=C(/C=C(\O)c1ccc(Cl)cc1)C1CCN(Cc2ccccc2)CC1`, the results for the Ki on D(4) dopamine receptor and on D(3) dopamine receptor were 12 nM and 510 nM, respectively.

Consider `c1ccc(CN2CCC(c3cc(-c4ccccc4)[nH]n3)CC2)cc1`, for which the inhibition constant (Ki) on D(4) dopamine receptor is 11 nM; on D(3) dopamine receptor it was 1400 nM.

Consider `c1ccc(CCN2CCC(c3cc(-c4cccnc4)n[nH]3)CC2)cc1`, for which the Ki was 23 nM on D(4) dopamine receptor and greater than 4200 nM on D(3) dopamine receptor.

For `Cc1c(C2CCN(Cc3ccccc3)CC2)n[nH]c1-c1ccc(Cl)cc1`, the results for the Ki on D(4) dopamine receptor and at D(3) dopamine receptor were 1.6 nM and 430 nM, respectively.

For the compound `c1ccc(CCN2CCC(c3cc(-c4ccccn4)[nH]n3)CC2)cc1`, the inhibition constant (Ki) at D(4) dopamine receptor came to 22 nM; on D(3) dopamine receptor it was 3600 nM.

Regarding `c1ccc(CCN2CCN(c3cc(-c4ccccc4)[nH]n3)CC2)cc1`, the results for the Ki on D(4) dopamine receptor and at D(3) dopamine receptor were 23 nM and 1200 nM, respectively.

`c1ccc(CCN2CCC3(CCc4c(-c5ccccc5)n[nH]c43)CC2)cc1`: the results for the inhibition constant Ki on D(4) dopamine receptor and at D(3) dopamine receptor were 930 nM and 600 nM, respectively.

As for `Clc1ccc(-c2cc(C3CCN(Cc4ccccc4Cl)CC3)[nH]n2)cc1`, the results for the Ki on D(4) dopamine receptor and on D(3) dopamine receptor were 20 nM and 1300 nM, respectively.

As for `Clc1ccc(-c2cc(C3CCN(CC4CCCCC4)CC3)[nH]n2)cc1`, the inhibitory constant (Ki) at D(4) dopamine receptor was determined as 13 nM; at D(3) dopamine receptor, 720 nM.

Turning to `Clc1ccc(CN2CCC(c3cc(-c4ccc(Cl)cc4)no3)CC2)cc1`, on D(3) dopamine receptor, the inhibitory constant (Ki) was determined as 80 nM.

On to `Clc1ccc(-c2cc(C3CCNCC3)[nH]n2)cc1`, for which the Ki at D(4) dopamine receptor is greater than 3300 nM; at D(3) dopamine receptor, greater than 4400 nM.

`Clc1ccc(-c2cc(C3CCN(Cc4ccccc4)CC3)[nH]n2)cc1`: the Ki is 9.1 nM on D(4) dopamine receptor and 160 nM at D(3) dopamine receptor.

For `Clc1ccc(-c2cc(C3CCN(Cc4ccccc4)C3)[nH]n2)cc1` (configuration not stated), the Ki amounted to 110 nM on D(4) dopamine receptor and 920 nM at D(3) dopamine receptor.

For the compound `Cc1cc(C2CCN(Cc3ccccc3)CC2)[nH]n1`, the Ki was found to be 470 nM at D(4) dopamine receptor and 3400 nM at D(3) dopamine receptor.

As to `Clc1ccc(-c2cc(C3CCN(CCCc4ccccc4)CC3)[nH]n2)cc1`, the Ki at D(4) dopamine receptor amounted to 110 nM; on D(3) dopamine receptor, 870 nM.

For `c1ccc(Cc2cc(C3CCN(Cc4ccccc4)CC3)[nH]n2)cc1`, the Ki at D(4) dopamine receptor amounted to 160 nM; at D(3) dopamine receptor, 2100 nM.

On to `c1ccc(CCN2CCC(c3cc(-c4cccs4)[nH]n3)CC2)cc1`, for which the inhibition constant Ki at D(4) dopamine receptor came out at 19 nM; on D(3) dopamine receptor it was 1100 nM.

With `c1ccc(CCN2CCC(c3cc(C4CCCCC4)n[nH]3)CC2)cc1`, the Ki was found to be 10 nM at D(4) dopamine receptor and 1200 nM on D(3) dopamine receptor.

Turning to `Clc1ccc(-c2cc(C3CCN(Cc4cccc(Cl)c4)CC3)[nH]n2)cc1`, the values for the Ki at D(4) dopamine receptor and on D(3) dopamine receptor were 60 nM and 4300 nM, respectively.

For the compound `Nc1nc(-c2ccc(Cl)cc2)cc(C2CCN(Cc3ccccc3)CC2)n1`, the Ki on D(4) dopamine receptor was 1 nM; on D(3) dopamine receptor it was 140 nM.

Consider `CCc1c(C2CCN(Cc3ccccc3)CC2)n[nH]c1-c1ccc(Cl)cc1`, for which the Ki was 1.5 nM at D(4) dopamine receptor and 46 nM on D(3) dopamine receptor.

Take `c1ccc(CCN2CCC(c3cc(-c4ccncc4)n[nH]3)CC2)cc1`: the Ki on D(4) dopamine receptor is 52 nM; at D(3) dopamine receptor, greater than 4000 nM.

On to `CC1(c2cc(-c3ccc(Cl)cc3)[nH]n2)CCN(Cc2ccccc2)CC1`, for which the Ki at D(4) dopamine receptor was determined as 47 nM; on D(3) dopamine receptor it was 1300 nM.

Take `Cc1c(-c2ccccc2)n[nH]c1C1=CCN(CCc2ccccc2)CC1`: the Ki at D(4) dopamine receptor is 3.1 nM; at D(3) dopamine receptor, 830 nM.

As for `CN1CCC(c2cc(-c3ccc(Cl)cc3)[nH]n2)CC1`, the Ki at D(4) dopamine receptor is 1200 nM; at D(3) dopamine receptor, greater than 1900 nM.

Consider `Cc1c(-c2ccc(Cl)cc2)nc(N)nc1C1CCN(CCc2ccccc2)CC1`, for which the results for the Ki on D(4) dopamine receptor and on D(3) dopamine receptor were 4.7 nM and 1100 nM, respectively.

Turning to `Clc1ccc(-c2cc(C3CCCN(Cc4ccccc4)C3)[nH]n2)cc1` (configuration not stated), the inhibition constant (Ki) came to 410 nM on D(4) dopamine receptor and 240 nM on D(3) dopamine receptor.

`Clc1ccc(-c2cc(C3CCCCN3Cc3ccccc3)[nH]n2)cc1` (configuration not stated): the inhibition constant (Ki) at D(4) dopamine receptor worked out at 4800 nM; on D(3) dopamine receptor, 1800 nM.

The values are drawn from ChEMBL document CHEMBL1130098, “4-Heterocyclylpiperidines as selective high-affinity ligands at the human dopamine D4 receptor” (J Med Chem, 1997).
